Reference: PubChem BioAssay (NCI)
Several values for one entry are separate records, joined by “and”; a condition that tells them apart may be missing. Identical values can stand only once.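 Five compound concentrations were applied to cells in 96-well plates for 48 hours; endpoints were derived by simple linear interpolation of the resulting dose-response curve. The concentration for 50% growth inhibition is given as GI50. The concentration for full growth arrest is given as TGI.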

Key:
Experiment in all cases: NCI anticancer screen, dose series, 48 h
[1] = test system: MDA-MB-231 breast
[2] = test system: MCF7 breast
[3] = test system: RPMI-8226 leukemia
[4] = test system: HOP-92 NSCLC
[5] = test system: KM20L2 colon
[6] = test system: LXFL 529 NSCLC
[7] = test system: 786-0 renal
[8] = test system: DU-145 prostate
[9] = test system: COLO 205 colon
[10] = test system: UACC-257 melanoma

SMILES | TGI [1] | TGI [2] [µM] | GI50 [3] | TGI [3] | GI50 [4] | TGI [4] | GI50 [5] | TGI [5] | GI50 [6] [µM] | TGI [6] | GI50 [7] | TGI [7] | TGI [8] | GI50 [9] | TGI [9] | GI50 [10] | TGI [10] | GI50 [1] | GI50 [2] | GI50 [8]
O=NN(CCCl)C(=O)NC1CCCCC1 | 57 µM | 117 | 27.1 µM | 40.8 µM and 122 µM and 73.9 µM | 23.6 µM and 42.6 µM | 48.7 µM and 99.1 µM and 74.7 µM | 34.3 µM and 163 µM | 96.9 µM and 144 µM and 350 µM | 17.3 | 32.8 µM and 111 µM and 76.6 µM | 32 µM | 33.9 µM and 65.9 µM and 68.6 µM | 132 µM | 20.3 µM and 57.1 µM | 36.7 µM and 102 µM and 87.8 µM | 23.7 µM | 73.8 µM and 127 µM and 82.4 µM | – | – | –
N#CCCN(CCC#N)c1ccc(C=Nc2ccc(F)cc2)cc1 | > 100 µM | > 100 | – | > 100 µM | – | > 100 µM | – | > 100 µM | – | > 100 µM | – | > 100 µM | > 100 µM | – | 70.3 µM | – | > 100 µM | – | – | –
CC(=O)OCC1OC(n2c(=S)n(-c3ccccc3)c(=O)c3cc(Br)cc(Br)c32)C(OC(C)=O)C(OC(C)=O)C1OC(C)=O (centres undefined) | – | – | 33.3 µM | > 100 µM | 15.3 µM and 46.9 µM | 63.3 µM and > 100 µM | – | > 100 µM | – | > 100 µM | 25.7 µM and 98.7 µM | > 100 µM | – | – | > 100 µM | 46.6 µM and > 100 µM | > 100 µM | – | – | –
COc1cc(CCc2ccc(OC(C)=O)cc2)cc(OC)c1OC | – | – | – | > 100 µM | – | > 100 µM | – | > 100 µM | – | > 100 µM | – | > 100 µM | – | – | > 100 µM | – | > 100 µM | – | – | –
Nc1nc(=S)c2[nH]cnc2[nH]1 | > 100 µM and 150 µM and > 250 µM | – | 0.255 µM and 1.3 µM and 0.488 µM | 2.77 µM and 22.3 µM and 3 µM | – | 4.44 µM and 26.8 µM and 32.4 µM | – | 67.4 µM | – | 233 µM | 0.335 µM and 1.45 µM and 1.01 µM | – | > 32.1 µM and 144 µM and 28.7 µM | 0.998 µM and 2.35 µM and 2.52 µM | 5.68 µM [middle of 4 runs] | 0.708 µM and 5.94 µM | > 70.3 µM and 110 µM and > 250 µM | 0.323 µM and 1.36 µM | 0.325 µM and 0.547 µM and 1.02 µM | 0.477 µM and 0.538 µM
CN(C)c1ccc(O[Si](Oc2ccc(N(C)C)cc2)(Oc2ccc(N(C)C)cc2)Oc2ccc(N(C)C)cc2)cc1 | – | – | – | > 100 µM | – | > 100 µM | – | > 100 µM | – | > 100 µM | – | > 100 µM | – | – | > 100 µM | – | > 100 µM | – | – | –
CCOc1ccccc1NC(=O)C1=C(C)NC(C)=C(C(=O)Nc2ccccc2OCC)C1c1ccc([N+](=O)[O-])cc1 | – | – | – | > 100 µM | – | > 100 µM | – | > 100 µM | – | > 100 µM | – | > 100 µM | – | – | > 100 µM | – | > 100 µM | – | – | –
COC(=O)C1CCC(=O)N1/C(C)=N/NC(=O)Nc1ccc(Cl)c(Cl)c1 (centres undefined) | – | – | – | > 100 µM | – | > 100 µM | – | > 100 µM | – | > 100 µM | – | > 100 µM | – | – | > 100 µM | – | > 100 µM | – | – | –
NNC(=O)N/N=C1\CN(c2ccc(Cl)cc2Cl)C(=O)C(=O)C1c1nc2ccccc2o1 (centres undefined) | – | – | – | > 100 µM | – | > 100 µM | – | > 100 µM | – | > 100 µM | – | > 100 µM | – | – | > 100 µM | – | > 100 µM | – | – | –
COc1ccc(C(=O)O/N=C2/CCCCC2CN(C)C)cc1 (centres undefined) | – | – | – | > 100 µM | – | > 100 µM | – | > 100 µM | – | > 100 µM | – | > 100 µM | – | – | > 100 µM | – | > 100 µM | – | – | –
COc1ccc(-c2cc(-c3ccco3)c(C#N)c(=O)[nH]2)cc1 | – | – | – | > 100 µM | – | > 100 µM | – | > 100 µM | – | > 100 µM | – | > 100 µM | – | – | > 100 µM | – | > 100 µM | – | – | –
C/C(CC(=O)Nc1cccc([N+](=O)[O-])c1)=N\NC(=O)C[n+]1ccccc1 | – | – | – | > 100 µM | – | > 100 µM | – | > 100 µM | – | > 100 µM | – | > 100 µM | – | – | > 100 µM | – | > 100 µM | – | – | –
